Data taken from EPA's ToxValDB 9.5.

Assays:
[1] = test system: Rattus norvegicus; details: subchronic; duration: 90 days; oral; diet; M/F; CD; Deaths + Body Weight Changes: decrease + Food Consumption: decrease + Hematology: RBC decrease, HGB decrease, HCT decrease, WBC decrease, …
[2] = test system: Mus musculus; details: oral
[3] = test system: Rattus norvegicus; details: short-term, duration: 28 days, oral, gavage, F, Sprague-Dawley
[4] = developmental, duration: 17 days, F, Developmental: Decrease in number of successful birthsbirths
[5] = short-term, duration: 3 weeks, M, BALB/c, Immunotoxicological: ~36% decrease in spleen index during recovery / ~15% inhibition in Con Ainduced T-cell proliferation during treatment…
[6] = short-term, duration: 21 days, F, B6C3F1, Immunotoxicological: Decreased host resistance to influenza virus
[7] = subchronic, duration: 3 months, M/F, C57BL/6, Neurological: Impaired spatial learning and memory
[8] = subchronic, duration: 5 weeks, M, Body Weight: 17% decrease in body weight + Reproductive: Decreases in sperm concentration, serum testosterone levels / vacuolation in …

O=S(=O)(O)C(F)(F)C(F)(F)C(F)(F)C(F)(F)C(F)(F)C(F)(F)C(F)(F)C(F)(F)F [Perfluorooctanesulfonic acid]
NOAEL [1]: < 2.88 mg/kg-day | LOAEL ([2]; acute, duration: 1 days, M, C57BL/6, Death: LD50): 579 mg/kg-day | LOAEL ([2]; developmental, duration: 1 days, M, NMRI, Developmental: Altered spontaneous behavior (?60, 87.5, or 60% changes in total activity, rearing, and locomotion)): 11.3 mg/kg-day | LOAEL ([2]; developmental, duration: 17 days, CD1, Developmental: Significant increase in cholesterol levels in fetal livers): 3 mg/kg-day | LOAEL [2, 4]: 3 mg/kg-day | NOAEL [2, 4]: 0.1 mg/kg-day | LOAEL ([2]; developmental, duration: 19 days, F, CD1, Developmental: In PND 63 offspring fed a high fat diet, increased serum glucose levels at ?0.3 mg/kg/day in females (~40%) and 3 mg/kg/day …): 0.3 mg/kg-day | NOAEL ([2]; developmental, duration: 19 days, F, CD1, ~24% increase in relative liver weight in dams at 3 mg/kg/day + Developmental: Increase in relative liver weight at 3 mg/kg/day in male and …): 3 mg/kg-day | LOAEL ([2]; reproduction developmental, duration: 6 days, F, CD1, Body Weight: 21% reduction in maternal body weight gain on GDs 14-17): 8 mg/kg-day | NOAEL ([2]; reproduction developmental, duration: 17 days, CD1, Hepatic: No alteration in maternal hepatic lipid levels): 3 mg/kg-day | LOAEL ([2]; short-term, duration: 3 weeks, M, BALB/c, Body Weight: ~15% reduction in body weight during the recovery period): 10 mg/kg-day | LOAEL [2, 5]: 5 mg/kg-day | NOAEL [2, 5]: 2.5 mg/kg-day | LOAEL ([2]; short-term, duration: 7 days, F, BALB/c, Body Weight: 41% decreased body weight gain + Immunotoxicological: Inhibition of T lymphocyte proliferation in response to sRBC / decreased…): 20 mg/kg-day | NOAEL ([2]; short-term, duration: 7 days, F, BALB/c, Hepatic: 59% increase in relative liver weight): 20 mg/kg-day | LOAEL ([2]; short-term, duration: 7 days, M, Immunotoxicological: Impaired response to T-cell mitogens / suppressed response to sRBC): 5 mg/kg-day | NOAEL ([2]; short-term, duration: 10 days, M, C57BL/6, Hepatic: 41% increase in liver weight, hepatocellular hypertrophy, and decreased serum cholesterol levels): 6 mg/kg-day | LOAEL [2, 6]: 0.025 mg/kg-day | NOAEL [2, 6]: 0.005 mg/kg-day | LOAEL ([2]; short-term, duration: 28 days, M, B6C3F1, Body Weight: 21% reduction in body weight): 0.2 mg/kg-day | NOAEL ([2]; short-term, duration: 28 days, M, B6C3F1, Immunotoxicological: No alterations in thymic lymphocyte phenotypes, response to sRBC, or IgM antibodies to LPS): 0.2 mg/kg-day | LOAEL [2, 7]: 2.15 mg/kg-day | NOAEL [2, 7]: 0.43 mg/kg-day | LOAEL [2, 8]: 10 mg/kg-day | NOAEL [2, 8]: 0.5 mg/kg-day | NOAEL ([2]; subchronic, duration: 6 weeks, M, Hepatic: Decreased plasma triglyceride, total cholesterol, non-HDL cholesterol, and HDL cholesterol levels / increased hepatic triglyceride…): 3 mg/kg-day | NOAEL ([2]; subchronic, duration: 30 days, M, C57BL/6): 10 mg/kg-day | LOAEL ([2]; subchronic, duration: 30 days, M, C57BL/6, Body Weight: 31% reduction in body weight (correlated with 68% reduction in feed consumption)): 10 mg/kg-day | LOAEL ([2]; subchronic, duration: 30 days, M, C57BL/6, Hepatic: Increased liver weight (35%) and serum AST(~12%) and GGT levels (~98%) at ?[…] / increases in ALT (~45%) and ALP (~36%) at ?5 mg/…): 2.5 mg/kg-day | LOEL ([3]; Clinical chemistry_Alanine aminotransferase): 2.5 mg/kg-day | LOEL ([3]; Clinical chemistry_Albumin): 2.5 mg/kg-day | LOEL ([3]; Clinical chemistry_Albumin/globulin ratio): 2.5 mg/kg-day | LOEL ([3]; Clinical chemistry_Alkaline phosphatase): 2.5 mg/kg-day | NOEL ([3]; Clinical chemistry_Aspartate aminotransferase): 5 mg/kg-day | LOEL ([3]; Clinical chemistry_Cholesterol): 5 mg/kg-day | LOEL ([3]; Clinical chemistry_Direct bilirubin): 2.5 mg/kg-day | LOEL ([3]; Clinical chemistry_Free thyroxine): 0.312 mg/kg-day | NOEL ([3]; Clinical chemistry_Globulin): 5 mg/kg-day | NOEL ([3]; Clinical chemistry_Sorbitol dehydrogenase): 5 mg/kg-day | NOEL ([3]; Clinical chemistry_Testosterone): 5 mg/kg-day | NOEL ([3]; Clinical chemistry_Thyroid stimulating hormone): 5 mg/kg-day | LOEL ([3]; Clinical chemistry_Total bile acids): 2.5 mg/kg-day | LOEL ([3]; Clinical chemistry_Total bilirubin): 5 mg/kg-day | LOEL ([3]; Clinical chemistry_Total protein): 5 mg/kg-day | LOEL ([3]; Clinical chemistry_Total thyroxine): 0.312 mg/kg-day | LOEL ([3]; Clinical chemistry_Total triiodothyronine): 0.625 mg/kg-day | LOEL ([3]; Clinical chemistry_Triglycerides): 2.5 mg/kg-day | LOEL ([3]; Gene expression_Acox1): 0.312 mg/kg-day | LOEL ([3]; Gene expression_Cyp2b1): 0.312 mg/kg-day | LOEL ([3]; Gene expression_Cyp2b2): 0.312 mg/kg-day | LOEL ([3]; Gene expression_Cyp4a1): 0.312 mg/kg-day | NOEL ([3]; Hematology_Erythrocytes): 5 mg/kg-day | NOEL ([3]; Hematology_Hematocrit): 5 mg/kg-day | NOEL ([3]; Hematology_Hemoglobin): 5 mg/kg-day | NOEL ([3]; Hematology_Leukocytes): 5 mg/kg-day | LOEL ([3]; Hematology_Reticulocytes): 2.5 mg/kg-day | NOEL ([3]; Hematology_S. neutrophils): 5 mg/kg-day | LOEL ([3]; Nonneoplastic effects_Bone marrow - Hypocellularity): 2.5 mg/kg-day | NOEL ([3]; Nonneoplastic effects_Kidney - Papilla, necrosis): 5 mg/kg-day | LOEL ([3]; Nonneoplastic effects_Liver - Hepatocyte, cytoplasmic alteration): 1.25 mg/kg-day | LOEL ([3]; Nonneoplastic effects_Liver - Hepatocyte, hypertrophy): 1.25 mg/kg-day | NOEL ([3]; Nonneoplastic effects_Liver - Hepatocyte, vacuolization cytoplasmic): 5 mg/kg-day | NOEL ([3]; Nonneoplastic effects_Liver - Necrosis): 5 mg/kg-day | NOEL ([3]; Nonneoplastic effects_Nose - Olfactory epithelium, degeneration): 5 mg/kg-day | NOEL ([3]; Nonneoplastic effects_Nose - Olfactory epithelium, hyperplasia): 5 mg/kg-day | NOEL ([3]; Nonneoplastic effects_Nose - Olfactory epithelium, inflammation, suppurative): 5 mg/kg-day | NOEL ([3]; Nonneoplastic effects_Nose - Olfactory epithelium, necrosis): 5 mg/kg-day | LOEL ([3]; Nonneoplastic effects_Spleen - Extramedullary hematopoiesis, decreased): 1.25 mg/kg-day | NOEL ([3]; Nonneoplastic effects_Stomach, forestomach - Epithelium, hyperplasia): 5 mg/kg-day | NOEL ([3]; Nonneoplastic effects_Thymus - Atrophy): 5 mg/kg-day | LOEL ([3]; Organ weights_Heart - Absolute): 5 mg/kg-day
